# Reference: patent publication US12680083B2, “Media for culturing naive human pluripotent stem cells” (Yeda Research and Development Co. Ltd., priority 2014, dated 2026)
# T1: PKCζ (Homo sapiens, UniProt Q05513)
# T1 sequence (Q05513 1-592): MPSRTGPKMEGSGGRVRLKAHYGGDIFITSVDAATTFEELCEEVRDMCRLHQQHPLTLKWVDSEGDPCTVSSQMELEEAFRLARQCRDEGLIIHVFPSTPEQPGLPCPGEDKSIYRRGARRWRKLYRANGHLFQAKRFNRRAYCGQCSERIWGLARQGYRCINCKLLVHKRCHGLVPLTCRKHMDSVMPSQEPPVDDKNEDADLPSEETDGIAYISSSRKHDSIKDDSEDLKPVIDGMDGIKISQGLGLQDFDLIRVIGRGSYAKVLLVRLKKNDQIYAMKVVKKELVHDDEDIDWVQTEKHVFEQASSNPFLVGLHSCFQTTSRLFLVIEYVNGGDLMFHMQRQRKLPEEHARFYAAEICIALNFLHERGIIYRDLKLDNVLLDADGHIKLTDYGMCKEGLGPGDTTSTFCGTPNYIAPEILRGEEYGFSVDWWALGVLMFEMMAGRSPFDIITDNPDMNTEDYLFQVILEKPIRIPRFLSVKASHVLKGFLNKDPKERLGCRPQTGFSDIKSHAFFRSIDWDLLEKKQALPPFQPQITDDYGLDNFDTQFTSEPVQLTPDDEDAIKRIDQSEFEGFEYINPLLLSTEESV
# T2: PKCμ (Homo sapiens, UniProt Q15139)
# T2 sequence (Q15139 1-912): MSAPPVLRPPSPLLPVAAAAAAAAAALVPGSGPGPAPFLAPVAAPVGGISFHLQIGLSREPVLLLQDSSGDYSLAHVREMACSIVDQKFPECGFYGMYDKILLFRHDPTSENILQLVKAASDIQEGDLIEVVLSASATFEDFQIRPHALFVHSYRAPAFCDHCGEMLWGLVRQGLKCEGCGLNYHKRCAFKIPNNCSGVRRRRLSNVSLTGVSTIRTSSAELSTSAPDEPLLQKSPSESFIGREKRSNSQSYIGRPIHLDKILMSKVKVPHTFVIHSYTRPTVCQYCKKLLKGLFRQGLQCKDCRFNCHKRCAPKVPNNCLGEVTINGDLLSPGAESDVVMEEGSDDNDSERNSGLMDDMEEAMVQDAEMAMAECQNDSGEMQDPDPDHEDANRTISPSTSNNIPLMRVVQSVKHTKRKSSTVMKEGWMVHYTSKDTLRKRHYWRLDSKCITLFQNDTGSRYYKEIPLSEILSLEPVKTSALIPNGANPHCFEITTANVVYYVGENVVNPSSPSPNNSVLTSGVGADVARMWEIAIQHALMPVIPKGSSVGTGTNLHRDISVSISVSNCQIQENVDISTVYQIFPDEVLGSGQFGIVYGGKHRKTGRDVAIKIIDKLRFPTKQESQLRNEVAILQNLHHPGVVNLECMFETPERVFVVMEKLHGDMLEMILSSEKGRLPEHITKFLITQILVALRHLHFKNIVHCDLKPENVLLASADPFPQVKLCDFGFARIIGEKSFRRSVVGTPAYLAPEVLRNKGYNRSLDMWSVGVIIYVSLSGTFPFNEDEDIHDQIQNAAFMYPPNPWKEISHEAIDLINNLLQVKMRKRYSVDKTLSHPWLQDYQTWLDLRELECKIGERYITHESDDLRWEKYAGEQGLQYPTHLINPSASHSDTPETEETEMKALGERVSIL
# Experiments:
# [1] = system: WIBR3 hESCs with ESRRB mCherry knock-in reporter; experiment: FACS analysis of ESRRB-mCherry knock-in reporter; type: cell-based, human
# Source text: FIGS. 26A-C depict the targeting human ESRRB (a gene/transcription factor) locus with knockin mCherry fluorescent reporter. FIG. 26A-Targeting scheme is illustrated. Scissors indicate CRISPR-sgRNA cut site. In order to create mCherry reporter co-expressed with endogenous human ESRRB locus, the present inventors have chosen to knock in p2a-mCherry coding sequence in frame with the last exon of the human ESRRB gene. The present inventors have inserted oligos specific for the stop codon region of ESRRB gene into px335 plasmid which encodes CAS9 nickase and sgRNA. The present inventors have targeted WIBR3 human ESC OCT4 GFP knockin cell line. The efficiency of the targeting was about 30% (15 out of 48 clones) as verified by external PCR. Correct targeting was also verified by Southern Blot (SB) with external and anti-mCherry probes (FIG. 26B). After Neo cassette excision with Flippase, the whole targeted locus from one of the clones was amplified and sequenced. Clones 2-6 were correctly targeted (FIG. 26C).
# FIGS. 26D-H are FACS analyses depicting expression of ESRRB-mCherry reporter in PSCs.
# PKCα = PKCα (Homo sapiens, UniProt P17252); conditions: cited from earlier work
# PKCβ = PKCβ (Homo sapiens, UniProt P05771); conditions: cited from earlier work
# Sequence of PKCβ (P05771 whole entry, species assumed): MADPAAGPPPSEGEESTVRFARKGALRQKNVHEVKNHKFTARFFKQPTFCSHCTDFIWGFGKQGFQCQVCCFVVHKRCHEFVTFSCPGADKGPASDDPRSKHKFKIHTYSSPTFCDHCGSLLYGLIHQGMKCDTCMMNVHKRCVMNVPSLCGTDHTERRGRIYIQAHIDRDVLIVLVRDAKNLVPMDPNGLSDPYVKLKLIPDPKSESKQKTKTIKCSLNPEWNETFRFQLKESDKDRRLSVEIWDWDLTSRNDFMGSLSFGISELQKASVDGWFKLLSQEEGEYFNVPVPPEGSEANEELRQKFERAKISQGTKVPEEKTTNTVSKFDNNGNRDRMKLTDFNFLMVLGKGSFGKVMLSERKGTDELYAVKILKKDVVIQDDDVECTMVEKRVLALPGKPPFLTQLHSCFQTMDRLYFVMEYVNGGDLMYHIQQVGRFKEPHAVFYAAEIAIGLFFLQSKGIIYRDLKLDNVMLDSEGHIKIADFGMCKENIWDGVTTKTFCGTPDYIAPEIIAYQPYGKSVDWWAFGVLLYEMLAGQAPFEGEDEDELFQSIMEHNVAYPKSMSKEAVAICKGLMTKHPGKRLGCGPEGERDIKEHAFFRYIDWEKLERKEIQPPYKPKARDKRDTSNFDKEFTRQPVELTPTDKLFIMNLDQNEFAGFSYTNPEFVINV
# PKCγ = PKCγ (Homo sapiens, UniProt P05129); conditions: cited from earlier work
# PKCδ = PKCδ (Homo sapiens, UniProt Q05655); conditions: cited from earlier work
# Sequence of PKCδ (Q05655 whole entry): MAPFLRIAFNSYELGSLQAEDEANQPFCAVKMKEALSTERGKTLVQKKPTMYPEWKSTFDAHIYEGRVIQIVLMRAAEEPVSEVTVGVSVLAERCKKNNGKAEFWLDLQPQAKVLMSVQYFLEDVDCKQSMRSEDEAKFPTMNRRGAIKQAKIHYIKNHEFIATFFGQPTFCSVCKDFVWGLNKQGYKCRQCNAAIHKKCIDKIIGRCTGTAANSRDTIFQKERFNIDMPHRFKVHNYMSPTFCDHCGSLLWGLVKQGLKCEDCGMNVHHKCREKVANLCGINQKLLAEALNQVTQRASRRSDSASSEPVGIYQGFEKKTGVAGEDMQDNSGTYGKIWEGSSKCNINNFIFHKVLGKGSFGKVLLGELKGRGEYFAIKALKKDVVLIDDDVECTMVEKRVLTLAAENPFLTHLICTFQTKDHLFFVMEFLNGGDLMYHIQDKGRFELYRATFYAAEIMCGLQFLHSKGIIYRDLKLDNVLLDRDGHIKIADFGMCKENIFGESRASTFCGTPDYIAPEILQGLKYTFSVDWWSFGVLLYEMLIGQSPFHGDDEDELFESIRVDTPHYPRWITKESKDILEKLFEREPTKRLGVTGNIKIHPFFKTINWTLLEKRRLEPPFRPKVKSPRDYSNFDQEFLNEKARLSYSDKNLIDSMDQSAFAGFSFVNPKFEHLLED
# PKCζ = target: T1, PKCζ; conditions: cited from earlier work
# PKCμ = target: T2, PKCμ; conditions: cited from earlier work
molecule,measurement,setting,value
COc1cc2nc(N3CCCN(C)CC3)nc(NC3CCN(Cc4ccccc4)CC3)c2cc1OC [BIX01294],ESRRB mCherry expression,[1]; conditions 136 with BIX01294 removed from the culture medium,this effect is lost
COc1ccc2c(c1)c(C1=C(c3c[nH]c4ccccc34)C(=O)NC1=O)cn2CCCN(C)C [Go6983],IC50,PKCα,7 nM
same,IC50,PKCβ,7 nM
same,IC50,PKCγ,6 nM
same,IC50,PKCδ,10 nM
same,IC50,PKCζ,60 nM
same,IC50,PKCμ,20000 nM
"Activin A: also known as Inhibin beta A, INHBA; activator of TGF/ACTIVIN pathway (protein, listed as Homo sapiens) MPLLWLRGFLLASCWIIVRSSPTPGSEGHSAAPDCPSCALAALPKDVPNSQPEMVEAVKKHILNMLHLKKRPDVTQPVPKAALLNAIRKLHVGKVGENGYVEIEDDIGRRAEMNELMEQTSEIITFAESGTARKTLHFEISKEGSDLSVVERAEVWLFLKVPKANRTRTKVTIRLFQQQKHPQGSLDTGEEAEEVGLKGERSELLLSEKVVDARKSTWHVFPVSSSIQRLLDQGKSSLDVRIACEQCQESGASLVLLGKKKKKEEEGEGKKKGGGEGGAGADEEKEQSHRPFLMLQARQSEDHPHRRRRRGLECDGKVNICCKKQFFVSFKDIGWNDWIIAPSGYHANYCEGECPSHIAGTSGSSLSFHSTVINHYRMRGHSPFANLKSCCVPTKLRPMSMLYYDDGQNIIKKDIQNMIVEECGCS",ESRRB mCherry expression,[1]; conditions 136 with Activin A added,this effect is lost
